Reference: PubChem BioAssay AID1845203 (Molecular Pharmacology Branch, DTP, NCI, 2023)

Test system: G-401 tumor spheroids, viability % test/control
Assay: Anticancer human tumor G-401 cell line growth inhibition;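 further: spheroids exposed to compound for 7 days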;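 on viability, T/C: 100% = DMSO vehicle-treated spheroids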
Conditions: spheroids with HUVEC and MSC; for IC50: curve of first compound; for viability, T/C: stronger effect = lower value
Procedure, shortened: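 Complex tumor spheroids combined malignant cells with endothelial cells and mesenchymal stem cells. DNA-damaging drugs and DNA repair inhibitors were tested alone and in combination, at half-log dilutions down from clinical Cmax (top 10 microM if Cmax unknown), 0.25% DMSO final.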

[1] = second compound 30 pM, first compound 0.00949 µM
[2] = second compound 30 pM, first compound 0.03 µM
[3] = second compound 30 pM, first compound 0.0949 µM
[4] = second compound 30 pM, first compound 0.3 µM
[5] = second compound 30 pM, first compound 0.949 µM
[6] = second compound 30 pM, first compound 3 µM
[7] = second compound 94.9 pM, first compound 0.00949 µM
[8] = second compound 94.9 pM, first compound 0.03 µM
[9] = second compound 94.9 pM, first compound 0.0949 µM
[10] = second compound 94.9 pM, first compound 0.3 µM
[11] = second compound 94.9 pM, first compound 0.949 µM
[12] = second compound 94.9 pM, first compound 3 µM
[13] = second compound 0.0003 µM, first compound 0.00949 µM
[14] = second compound 0.0003 µM, first compound 0.03 µM
[15] = second compound 0.0003 µM, first compound 0.0949 µM
[16] = second compound 0.0003 µM, first compound 0.3 µM
[17] = second compound 0.0003 µM, first compound 0.949 µM
[18] = second compound 0.0003 µM, first compound 3 µM
[19] = second compound 0.000949 µM, first compound 0.00949 µM
[20] = second compound 0.000949 µM, first compound 0.03 µM
[21] = second compound 0.000949 µM, first compound 0.0949 µM
[22] = second compound 0.000949 µM, first compound 0.3 µM
[23] = second compound 0.000949 µM, first compound 0.949 µM
[24] = second compound 0.000949 µM, first compound 3 µM
[25] = second compound 0.003 µM, first compound 0.00949 µM
[26] = second compound 0.003 µM, first compound 0.03 µM
[27] = second compound 0.003 µM, first compound 0.0949 µM
[28] = second compound 0.003 µM, first compound 0.3 µM
[29] = second compound 0.003 µM, first compound 0.949 µM
[30] = second compound 0.003 µM, first compound 3 µM

| Structure (SMILES) | IC50 (second compound 30 pM) [nM] | IC50 (second compound 94.9 pM) [nM] | IC50 (second compound 0.0003 µM) [nM] | IC50 (second compound 0.000949 µM) [nM] | IC50 (second compound 0.003 µM) [nM] | viability, T/C [3] [%] | viability, T/C [4] [%] | viability, T/C [5] [%] | viability, T/C [6] [%] | viability, T/C [9] [%] | viability, T/C [10] [%] | viability, T/C [11] [%] | viability, T/C [12] [%] | viability, T/C [15] [%] | viability, T/C [16] [%] | viability, T/C [17] [%] | viability, T/C [18] [%] | viability, T/C [21] [%] | viability, T/C [22] [%] | viability, T/C [23] [%] | further results |
| --- | --- | --- | --- | --- | --- | --- | --- | --- | --- | --- | --- | --- | --- | --- | --- | --- | --- | --- | --- | --- | --- |
| CNCc1ccc(-c2cc(-c3nc(-c4ccc(S(=O)(=O)C(C)C)cc4)cnc3N)on2)cc1 + COc1cc2c(cc1O)CCNC21CSC2c3c(OC(C)=O)c(C)c4c(c3C(COC1=O)N1C(O)C3Cc5cc(C)c(OC)c(O)c5C(C21)N3C)OCO4 | 1420 | 529 | 10.3 | < 9.49 | < 9.49 | 103 | 88.7 | 58.4 | 35 | 89.9 | 60.5 | 39.5 | 25.8 | 38.2 | 25.9 | 24.1 | 18.6 | 12.2 | 18.3 | 19.3 | viability, T/C [1]: 100%; viability, T/C [2]: 95.5%; viability, T/C [7]: 94.4%; viability, T/C [8]: 94.8%; viability, T/C [13]: 48%; viability, T/C [14]: 51.4%; viability, T/C [19]: 9.02%; viability, T/C [20]: 10.5%; viability, T/C [24]: 9.87%; viability, T/C [25]: 0.14%; viability, T/C [26]: 0.14%; viability, T/C [27]: 0.22%; viability, T/C [28]: 0.29%; viability, T/C [29]: 0.89%; viability, T/C [30]: 0.21% |
| Cc1sc2c(c1C)C(c1ccc(Cl)cc1)=NC(CC(=O)Nc1ccc(O)cc1)c1nnc(C)n1-2 (stereo not given) + COc1cc2c(cc1O)CCNC21CSC2c3c(OC(C)=O)c(C)c4c(c3C(COC1=O)N1C(O)C3Cc5cc(C)c(OC)c(O)c5C(C21)N3C)OCO4 | 160 | 115 | < 9.49 | < 9.49 | < 9.49 | 63.9 | 34.8 | 17.8 | 8.07 | 55.1 | 31.3 | 12 | 5.01 | 27.1 | 9.01 | 4.45 | 1.34 | 19.1 | 1.51 | 0.15 | viability, T/C [1]: 102%; viability, T/C [2]: 83.3%; viability, T/C [7]: 92.8%; viability, T/C [8]: 74.7%; viability, T/C [13]: 35.1%; viability, T/C [14]: 38.7%; viability, T/C [19]: 19.8%; viability, T/C [20]: 3.94%; viability, T/C [24]: 0.16%; viability, T/C [25]: 0.08%; viability, T/C [26]: 0.07%; viability, T/C [27]: 0.12%; viability, T/C [28]: 0.13%; viability, T/C [29]: 0.12%; viability, T/C [30]: 0.24% |
| Cn1ncnc1[C@H]1c2n[nH]c(=O)c3cc(F)cc(c23)N[C@@H]1c1ccc(F)cc1 + COc1cc2c(cc1O)CCNC21CSC2c3c(OC(C)=O)c(C)c4c(c3C(COC1=O)N1C(O)C3Cc5cc(C)c(OC)c(O)c5C(C21)N3C)OCO4 | 72.5 | < 9.49 | < 9.49 | < 9.49 | < 9.49 | 46 | 30.6 | 19.6 | 10.8 | 34.1 | 26.2 | 17.9 | 9.94 | 21.5 | 19.1 | 11.2 | 7.83 | 5.35 | 5.74 | 2.94 | viability, T/C [1]: 70.6%; viability, T/C [2]: 62%; viability, T/C [7]: 48.4%; viability, T/C [8]: 47.3%; viability, T/C [13]: 25.6%; viability, T/C [14]: 26.4%; viability, T/C [19]: 6.63%; viability, T/C [20]: 5.61%; viability, T/C [24]: 0.23%; viability, T/C [25]: 0.15%; viability, T/C [26]: 0.13%; viability, T/C [27]: 0.13%; viability, T/C [28]: 0.15%; viability, T/C [29]: 0.14%; viability, T/C [30]: 0.21% |
| O=C(c1cc(Cc2n[nH]c(=O)c3ccccc23)ccc1F)N1CCN(C(=O)C2CC2)CC1 + COc1cc2c(cc1O)CCNC21CSC2c3c(OC(C)=O)c(C)c4c(c3C(COC1=O)N1C(O)C3Cc5cc(C)c(OC)c(O)c5C(C21)N3C)OCO4 | 9070 | 6010 | < 94.9 | < 94.9 | < 94.9 | 80.3 | 97 | 88.3 | 77.8 | 89.4 | 78.8 | 82.2 | 71.5 | 32.3 | 37.4 | 39.3 | 29.5 | 10.1 | 5.68 | 7.52 | viability, T/C (second compound 30 pM, first compound 9.49 µM): 49.1%; viability, T/C (second compound 30 pM, first compound 30 µM): 30.1%; viability, T/C (second compound 94.9 pM, first compound 9.49 µM): 35.9%; viability, T/C (second compound 94.9 pM, first compound 30 µM): 25.7%; viability, T/C (second compound 0.0003 µM, first compound 9.49 µM): 18.7%; viability, T/C (second compound 0.0003 µM, first compound 30 µM): 16.2%; viability, T/C [24]: 6.02%; viability, T/C (second compound 0.000949 µM, first compound 9.49 µM): 5.03%; viability, T/C (second compound 0.000949 µM, first compound 30 µM): 1.6%; viability, T/C [27]: 0.13%; viability, T/C [28]: 0.15%; viability, T/C [29]: 0.12%; viability, T/C [30]: 0.18%; viability, T/C (second compound 0.003 µM, first compound 9.49 µM): 0.2%; viability, T/C (second compound 0.003 µM, first compound 30 µM): 0.24% |
